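1) Cells in 96-well plates. 2) Compound, 48 h, 5 concentrations. 3) Linear interpolation between surrounding doses. 4) Unreached endpoint = highest concentration. At the GI50, growth is halved. The concentration for full growth arrest is given as TGI.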
Experiments:
Experiment in all cases: DTP human tumour cell line panel, 48 h
[1] = system: IGROV1 ovarian
[2] = system: MOLT-4 leukemia
[3] = system: HCT-15 colon
[4] = system: RXF 393 renal
[5] = system: SNB-19 CNS
[6] = system: A549 NSCLC
[7] = system: BT-549 breast
[8] = system: HL-60(TB) leukemia
[9] = system: LOX IMVI melanoma
[10] = system: SNB-75 CNS
[11] = system: NCI-H522 lung
[12] = system: OVCAR-5 ovarian
[13] = system: UO-31 renal
[14] = system: T-47D breast
[15] = system: COLO 205 colon
[16] = system: HOP-92 NSCLC
[17] = system: ACHN renal
[18] = system: SR leukemia
[19] = system: EKVX NSCLC
[20] = system: MCF7 breast
[21] = system: MDA-MB-231 breast
[22] = system: PC-3 prostate
[23] = system: SW-620 colon
[24] = system: NCI-H460 lung
[25] = system: SK-OV-3 ovarian
[26] = system: A498 renal
[27] = system: MDA-MB-435
[28] = system: HCC-2998 colon
[29] = system: SF-295 CNS
[30] = system: HT29 colon
[31] = system: DU-145 prostate
[32] = system: MALME-3M melanoma
[33] = system: NCI-H226 lung
[34] = system: M14 melanoma
[35] = system: TK-10 renal
[36] = system: SK-MEL-2 melanoma
[37] = system: CCRF-CEM leukemia
[38] = system: SN12C renal
[39] = system: SK-MEL-5 melanoma
[40] = system: NCI-H23 lung
[41] = system: SF-268 CNS
[42] = system: OVCAR-4 ovarian
[43] = system: SK-MEL-28 melanoma
[44] = system: CAKI-1 renal
[45] = system: OVCAR-3 ovarian
[46] = system: SF-539 CNS
[47] = system: UACC-62 melanoma
[48] = system: UACC-257 melanoma
[49] = system: KM12 colon

With `COc1cc(C2CC(c3cccc(Nc4ccncc4)c3)=NN2c2ccccc2)cc(OC)c1OC` (stereo not drawn) the GI50 [1] was 1.77 µM, the TGI [1] was 3.61 µM and the GI50 [2] was 1.86 µM. It also gave a TGI [2] of 4.7 µM, a GI50 [3] of 1.91 µM and a TGI [3] of 3.75 µM. For the same compound, the GI50 [4] was 1.56 µM, the TGI [4] was 2.95 µM and the GI50 [5] was 1.64 µM. It also gave a TGI [5] of 3.29 µM, a GI50 [6] of 1.73 µM and a TGI [6] of 3.53 µM. For the same compound, the GI50 [7] was 1.8 µM, the TGI [7] was 3.56 µM and the GI50 [8] was 1.72 µM. The TGI [8] was 3.65 µM, the GI50 [9] was 1.76 µM and the TGI [9] was 3.15 µM. For the same compound, the GI50 [10] was 1.42 µM, the TGI [10] was 3.74 µM and the GI50 [11] was 1.75 µM. The TGI [11] was 3.62 µM, the GI50 [12] was 2.17 µM and the TGI [12] was 5.23 µM. It also gave a GI50 [13] of 1.42 µM, a TGI [13] of 2.81 µM and a GI50 [14] of 2.12 µM. It also gave a TGI [14] of 6.61 µM, a GI50 [15] of 1.8 µM and a TGI [15] of 4.25 µM. The GI50 [16] was 1.41 µM, the TGI [16] was 2.94 µM and the GI50 [17] was 1.7 µM. The TGI [17] was 3.11 µM, the GI50 [18] was 1.56 µM and the TGI [18] was 3.58 µM. The GI50 [19] was 1.8 µM, the TGI [19] was 4.16 µM and the GI50 [20] was 1.84 µM. The TGI [20] was 4.04 µM, the GI50 [21] was 1.52 µM and the TGI [21] was 2.89 µM. For the same compound, the GI50 [22] was 1.79 µM, the TGI [22] was 4.23 µM and the GI50 [23] was 1.66 µM. The TGI [23] was 3.16 µM, the GI50 [24] was 1.77 µM and the TGI [24] was 3.27 µM. The GI50 [25] was 1.78 µM, the TGI [25] was 3.5 µM and the GI50 [26] was 1.63 µM. It also gave a TGI [26] of 7.14 µM, a GI50 [27] of 1.61 µM and a TGI [27] of 3.12 µM. It also gave a GI50 [28] of 1.8 µM, a TGI [28] of 3.3 µM and a GI50 [29] of 1.81 µM. The TGI [29] was 3.28 µM, the GI50 [30] was 1.93 µM and the TGI [30] was 4.53 µM. It also gave a GI50 [31] of 1.79 µM, a TGI [31] of 3.4 µM and a GI50 [32] of 1.61 µM. It also gave a TGI [32] of 3.03 µM, a GI50 [33] of 2.11 µM and a TGI [33] of 5.27 µM. It also gave a GI50 [34] of 1.91 µM, a TGI [34] of 4.12 µM and a GI50 [35] of 1.79 µM. For the same compound, the TGI [35] was 3.42 µM, the GI50 [36] was 1.96 µM and the TGI [36] was 3.8 µM. For the same compound, the GI50 [37] was 2.93 µM, the TGI [37] was 8.53 µM and the GI50 [38] was 1.6 µM. For the same compound, the TGI [38] was 3.05 µM, the GI50 [39] was 1.78 µM and the TGI [39] was 3.17 µM. For the same compound, the GI50 [40] was 1.94 µM, the TGI [40] was 3.87 µM and the GI50 [41] was 1.7 µM. It also gave a TGI [41] of 3.45 µM, a GI50 [42] of 1.71 µM and a TGI [42] of 3.73 µM. For the same compound, the GI50 [43] was 1.77 µM, the TGI [43] was 3.3 µM and the GI50 [44] was 1.55 µM. For the same compound, the TGI [44] was 3.01 µM, the GI50 [45] was 1.66 µM and the TGI [45] was 3.14 µM. It also gave a GI50 [46] of 1.71 µM, a TGI [46] of 3.11 µM and a GI50 [47] of 1.73 µM. The TGI [47] was 3.18 µM, the GI50 [48] was 1.95 µM and the TGI [48] was 3.82 µM. For the same compound, the GI50 [49] was 1.72 µM and the TGI [49] was 3.46 µM.

From PubChem BioAssay (NCI)
